# Results published in ChEMBL document CHEMBL1137514, “Synthesis and biological evaluation of non-peptide alpha(v)beta(3)/alpha(5)beta(1) integrin dual antagonists containing 5,6-dihydropyridin-2-one scaffolds” (Bioorg Med Chem, 2007).
# Residues, ends and D or L forms follow the SMILES beside them.
# How the values were obtained:
# Integrin alpha-5/beta-1 = Integrin alpha-5/beta-1 (Homo sapiens, UniProt P05556+P08648); assay: Inhibition of integrin alpha-5-beta-1-mediated K562 cell adhesion to fibronectin; type: cell-based
# Sequence of Integrin alpha-5/beta-1 (P05556 21-798 limits assumed): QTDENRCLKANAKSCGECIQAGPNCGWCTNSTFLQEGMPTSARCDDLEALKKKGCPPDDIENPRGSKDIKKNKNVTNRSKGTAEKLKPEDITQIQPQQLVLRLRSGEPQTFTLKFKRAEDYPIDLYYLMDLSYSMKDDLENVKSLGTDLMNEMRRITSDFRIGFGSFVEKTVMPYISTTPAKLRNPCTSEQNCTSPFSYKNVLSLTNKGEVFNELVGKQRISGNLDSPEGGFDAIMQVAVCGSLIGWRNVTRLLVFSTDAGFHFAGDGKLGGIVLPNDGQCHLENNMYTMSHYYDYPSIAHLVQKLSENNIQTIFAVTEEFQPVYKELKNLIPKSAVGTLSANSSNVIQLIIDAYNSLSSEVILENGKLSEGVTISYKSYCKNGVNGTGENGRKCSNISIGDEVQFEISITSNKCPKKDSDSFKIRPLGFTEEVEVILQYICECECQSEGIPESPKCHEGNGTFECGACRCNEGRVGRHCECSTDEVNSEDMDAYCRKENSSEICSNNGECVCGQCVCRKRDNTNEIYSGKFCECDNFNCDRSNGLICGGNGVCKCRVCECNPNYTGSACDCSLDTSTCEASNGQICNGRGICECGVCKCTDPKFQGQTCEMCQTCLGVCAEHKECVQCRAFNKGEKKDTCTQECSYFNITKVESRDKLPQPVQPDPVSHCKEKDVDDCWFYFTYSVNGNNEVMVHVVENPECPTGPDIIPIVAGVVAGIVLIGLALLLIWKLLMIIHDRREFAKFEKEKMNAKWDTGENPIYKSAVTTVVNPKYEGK
# Sequence of Integrin alpha-5/beta-1 (P08648 42-894 limits assumed): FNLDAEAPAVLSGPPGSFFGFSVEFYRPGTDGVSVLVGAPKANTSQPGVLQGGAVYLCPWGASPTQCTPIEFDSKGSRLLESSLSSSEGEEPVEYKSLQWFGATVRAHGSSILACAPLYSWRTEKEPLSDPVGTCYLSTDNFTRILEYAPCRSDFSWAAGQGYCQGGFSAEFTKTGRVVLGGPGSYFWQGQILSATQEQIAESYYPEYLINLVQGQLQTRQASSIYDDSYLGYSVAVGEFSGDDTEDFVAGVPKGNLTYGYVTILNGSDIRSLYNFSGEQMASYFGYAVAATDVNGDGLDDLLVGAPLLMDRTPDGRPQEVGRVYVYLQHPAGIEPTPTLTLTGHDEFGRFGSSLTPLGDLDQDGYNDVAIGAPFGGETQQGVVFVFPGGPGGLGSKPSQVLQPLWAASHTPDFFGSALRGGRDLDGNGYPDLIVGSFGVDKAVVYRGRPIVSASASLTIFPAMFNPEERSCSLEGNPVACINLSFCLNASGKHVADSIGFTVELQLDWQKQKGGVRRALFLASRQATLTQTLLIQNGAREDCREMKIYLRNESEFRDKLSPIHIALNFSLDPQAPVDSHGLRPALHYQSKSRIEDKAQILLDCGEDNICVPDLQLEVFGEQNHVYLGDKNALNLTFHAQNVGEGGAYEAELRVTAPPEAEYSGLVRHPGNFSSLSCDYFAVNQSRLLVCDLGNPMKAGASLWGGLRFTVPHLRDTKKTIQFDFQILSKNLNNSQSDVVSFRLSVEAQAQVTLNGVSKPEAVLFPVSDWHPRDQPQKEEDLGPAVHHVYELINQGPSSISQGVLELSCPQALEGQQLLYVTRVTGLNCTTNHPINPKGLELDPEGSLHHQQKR
# Sequence of Integrin alpha-5/beta-1 (P08648 895-1049 limits assumed): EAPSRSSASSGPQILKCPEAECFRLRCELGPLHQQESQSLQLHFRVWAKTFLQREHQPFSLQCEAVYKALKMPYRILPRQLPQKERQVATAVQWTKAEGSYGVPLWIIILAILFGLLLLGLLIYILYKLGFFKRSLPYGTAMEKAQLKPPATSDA
# Integrin alpha-V/beta-3 = Integrin alpha-V/beta-3 (Homo sapiens, UniProt P05106+P06756); assay: Inhibition of integrin alpha-V-beta-3-mediated SK-MEL-24 cell adhesion to fibronectin
# Sequence of Integrin alpha-V/beta-3 (P05106 27-788 limits assumed): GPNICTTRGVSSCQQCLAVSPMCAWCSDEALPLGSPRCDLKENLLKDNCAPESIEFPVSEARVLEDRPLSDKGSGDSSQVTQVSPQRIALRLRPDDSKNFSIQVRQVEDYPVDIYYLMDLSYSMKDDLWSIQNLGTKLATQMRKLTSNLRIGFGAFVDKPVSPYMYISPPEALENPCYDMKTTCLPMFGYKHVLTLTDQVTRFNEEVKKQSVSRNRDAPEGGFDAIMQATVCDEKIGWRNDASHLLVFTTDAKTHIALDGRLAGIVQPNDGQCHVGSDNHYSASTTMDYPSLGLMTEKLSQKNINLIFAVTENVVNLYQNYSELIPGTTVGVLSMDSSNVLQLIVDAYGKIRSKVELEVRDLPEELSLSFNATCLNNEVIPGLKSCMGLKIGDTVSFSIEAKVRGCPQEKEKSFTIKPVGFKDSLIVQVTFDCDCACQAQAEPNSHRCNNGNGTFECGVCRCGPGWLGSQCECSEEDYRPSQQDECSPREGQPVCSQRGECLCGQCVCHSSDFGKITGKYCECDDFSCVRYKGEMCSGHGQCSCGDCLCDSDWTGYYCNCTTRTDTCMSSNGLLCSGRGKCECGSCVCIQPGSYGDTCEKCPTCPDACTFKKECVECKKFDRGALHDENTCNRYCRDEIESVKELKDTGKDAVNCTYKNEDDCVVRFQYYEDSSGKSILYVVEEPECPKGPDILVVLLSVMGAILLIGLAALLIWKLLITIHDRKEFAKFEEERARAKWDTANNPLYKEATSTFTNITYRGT
# Sequence of Integrin alpha-V/beta-3 (P06756 31-889 limits assumed): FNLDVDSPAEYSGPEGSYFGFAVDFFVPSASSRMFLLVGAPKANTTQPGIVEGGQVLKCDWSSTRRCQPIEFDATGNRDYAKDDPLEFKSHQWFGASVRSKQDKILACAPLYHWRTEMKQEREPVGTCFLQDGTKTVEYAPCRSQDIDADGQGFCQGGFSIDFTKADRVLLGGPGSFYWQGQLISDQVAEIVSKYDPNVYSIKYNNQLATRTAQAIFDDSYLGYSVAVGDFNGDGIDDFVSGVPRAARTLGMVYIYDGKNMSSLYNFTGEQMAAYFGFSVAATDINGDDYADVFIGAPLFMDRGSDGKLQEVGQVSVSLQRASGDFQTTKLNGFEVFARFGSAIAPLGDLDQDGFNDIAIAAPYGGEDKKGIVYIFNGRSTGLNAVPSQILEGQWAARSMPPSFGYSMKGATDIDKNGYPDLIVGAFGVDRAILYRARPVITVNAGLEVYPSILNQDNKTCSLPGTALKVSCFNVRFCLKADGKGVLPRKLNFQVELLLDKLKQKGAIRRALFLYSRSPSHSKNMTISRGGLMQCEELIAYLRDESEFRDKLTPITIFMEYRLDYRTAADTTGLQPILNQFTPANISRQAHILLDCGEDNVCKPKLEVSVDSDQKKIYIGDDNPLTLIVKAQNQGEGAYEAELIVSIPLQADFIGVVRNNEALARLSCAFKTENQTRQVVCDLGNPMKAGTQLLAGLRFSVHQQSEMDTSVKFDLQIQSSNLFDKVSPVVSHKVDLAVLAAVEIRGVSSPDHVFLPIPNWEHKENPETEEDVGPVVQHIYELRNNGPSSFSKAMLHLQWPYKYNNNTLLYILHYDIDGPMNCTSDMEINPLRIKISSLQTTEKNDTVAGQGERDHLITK
# Sequence of Integrin alpha-V/beta-3 (P06756 891-1048 limits assumed): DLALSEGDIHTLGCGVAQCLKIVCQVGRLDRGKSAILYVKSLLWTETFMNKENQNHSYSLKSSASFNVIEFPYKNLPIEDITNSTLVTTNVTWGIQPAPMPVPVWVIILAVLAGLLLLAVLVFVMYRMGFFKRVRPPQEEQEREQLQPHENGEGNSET
Structure (SMILES),IC50 (Integrin alpha-5/beta-1) [µM],IC50 (Integrin alpha-V/beta-3) [µM]
CCCN(C(=O)C(CC(=O)OC)C(=O)O)C1=C(C)CC(c2ccccc2)N(Cc2ccc(N)cc2)C1=O (configuration not stated),> 1000,45
CCCN(C(=O)CC(=O)O)C1=C(C)CC(c2ccccc2)N(CCCCN)C1=O (configuration not stated),0.043,0.038
CCCN(C(=O)CCN)C1=C(C)CC(c2ccccc2)N(CCC(=O)O)C1=O (configuration not stated),> 1000,> 1000
CCCN(C(=O)CCC(=O)O)C1=C(C)CC(c2ccccc2)N(Cc2ccc(C(=N)N)cc2)C1=O (configuration not stated),> 1000,> 1000
CCCN(C(=O)C(CC(=O)OC)C(=O)O)C1=C(C)CC(c2ccccc2)N(Cc2ccc(C(=N)N)cc2)C1=O (configuration not stated),> 1000,> 1000
CCCN(C(=O)CC(=O)O)C1=C(C)C[C@H](c2ccc(N)cc2)N([C@@H](C)c2ccc(OC)cc2)C1=O,0.018,21
CC(=O)N[C@@H](CC(=O)O)C(=O)N[C@@H](CCCNC(=N)N)C(=O)N[C@@H](CC(C)C)C(=O)N[C@@H](CC(=O)O)C(=O)N[C@@H](CO)C(=O)O (Ac-DRLDS-OH),259,0.025

# The remaining lines, values ahead:
IC50 (Integrin alpha-5/beta-1) [µM],IC50 (Integrin alpha-V/beta-3) [µM],Structure (SMILES)
> 1000,> 1000,CCCN(C(=O)C(CC(=O)O)C(=O)O)C1=C(C)CC(c2ccccc2)N(Cc2ccc(C(=N)N)cc2)C1=O (configuration not stated)
0.17,0.6,CCCN(C(=O)CC(=O)O)C1=C(C)CC(c2ccccc2)N(Cc2ccc(N)cc2)C1=O (configuration not stated)
> 1000,> 1000,CCCN(C(=O)C(CC(=O)O)C(=O)O)C1=C(C)CC(c2ccccc2)N(Cc2ccc(N)cc2)C1=O (configuration not stated)
> 1000,> 1000,CCCN(C(=O)CCCCCN)C1=C(C)CC(c2ccccc2)N(CCC(=O)O)C1=O (configuration not stated)
> 1000,> 1000,CCCN(C(=O)CC(=O)O)C1=C(C)CC(c2ccc(C(=N)N)cc2)N([C@@H](C)c2ccc(OC)cc2)C1=O (some centres not stated)
> 1000,120,CCCN(C(=O)CC(=O)O)C1=C(C)CC(c2ccccc2)N(Cc2ccc(C(=N)N)cc2)C1=O (configuration not stated)
> 1000,0.24,CCCN(C(=O)CC(=O)O)C1=C(C)C[C@@H](c2ccc(N)cc2)N([C@@H](C)c2ccc(OC)cc2)C1=O
35.1,15.1,CCCN(C(=O)CC(=O)O)C1=C(C)C[C@H](c2ccccc2)N([C@@H](C)c2ccc(N)cc2)C1=O
0.057,0.071,CCCN(C(=O)CC(=O)O)C1=C(C)C[C@@H](c2ccccc2)N([C@@H](C)c2ccc(N)cc2)C1=O
